{
  "source": "patent EP0659072B1",
  "about": "“PHAR[…] […] STEROIDS” (Pharmacia AB, priority 1993, dated 1995)",
  "key": {"[1]": {"experiment": "Quality of castor oil containing emulsions with different steroids (pH, volume distribution, span, storage stability)", "format": "physicochemical", "details": "for D(4:3) / pH / Span: emulsion of the steroid; for pH: heat sterilized; for Span: Malvern Mastersizer; for Storage 5 and 40°C: storage stability of emulsion", "procedure": "In order to determinate the quality of the castor oil containing emulsions with different steroids, the following compositions were prepared:\nThe steroids were weighed in a 50 ml glass beaker. The castor oil (CO) or a mixture of castor oil and soybeans oil (CO+SBO) in a proportion of 70 : 30 was added to the beaker which was heated and the steroids were dissolved. The phospholipids were added to the oil phase and the agitation continued for another five minutes. This mixture was added to a heated aqueous phase containing water and glycerol and agitated for five minutes. The mixture was thereafter homogenized to an emulsion in a high pressure lab scale homogeniser at the technically highest possible pressure. The resultant emulsions were dispersed and sealed 20 ml glass vials which were heat sterilized. The emulsions were analysed with respect to the appearance, the shaking stability, pH and volume distribution. The span was analysed with a Malvern Mastersizer. The appearance of the droplets larger than 1µm and the average area on a relevant picture and the presence of precipitate were investigated with a microscope. The storage stability at 5 and 40°C was also studied."}, "[2]": {"experiment": "Solubility of steroid and stability of the oil-in-water emulsions of Example 2", "format": "physicochemical", "details": "in Formulation 1 compared with Formulation 3", "procedure": "For the biological experimentation oil-in-water emulsions were prepared from the following components:\npH was adjusted to 8.5 by NaOH and water for injection was added to 1 ml in all formulations.\nFormulations 1 and 2 are emulsions according to the present invention, whereas Formulation 3 is a state of the art emulsion according to the European patent EP 233 849. The medium chain triglycerides in Formulation 2 are derived from coconut oil and will contain a fraction of triglycerides with fatty add residues having 6 to 12 carbon atoms. According to the present invention, the eltanolone was first mixed with castor oil or a mixture of castor oil and soybean oil and/or MCT. This leads to a substantial dissolution of the eltanolone. An emulsion was then prepared from the resulting oil-eltanolone mixture together with the additional indicated components. The resulting emulsions were stable and had average particle sizes of about 0.2 to 0.3 µ and could be sterilized by autoclaving without destabilisation. It is notable that in Formulations 1 and 2 according to the present invention half the amount of lipids is sufficient for obtaining a substantial dissolution of eltanolone when compared to Formulation 3. The solubility of eltanolone is for example about 5 times higher in Formulation 1 than in Formulation 3."}, "[3]": {"details": "vehicle CO+SBO (castor oil and soybean oil 70 : 30)"}},
  "data": [
    {"compound": "C[C@]12C=CC(=O)C=C1CC[C@@H]1[C@@H]2[C@@H](O)C[C@@]2(C)[C@H]1CC[C@]2(O)C(=O)CO", "note": "[Prednisolone, 11β-11, 17, 21-trihydroxypregna-1,4-diene-3,20-dione, reference compound]", "values": [
      {"measurement": "D(4:3)", "setting": "[1]; vehicle CO (castor oil)", "result": 0.81, "unit": "µm"},
      {"measurement": "pH", "setting": "[1]; vehicle CO (castor oil)", "result": 8.9},
      {"measurement": "Span", "setting": "[1]; vehicle CO (castor oil)", "result": 1.28},
      {"measurement": "D(4:3)", "setting": "[1]; vehicle CO+SBO (70 : 30)", "result": 0.70, "unit": "µm"},
      {"measurement": "Span", "setting": "[1]; vehicle CO+SBO (70 : 30)", "result": 1.26},
      {"measurement": "pH", "setting": "[1]; [3]", "result": 8.9},
      {"measurement": "Storage 5 and 40°C", "setting": "[1]; vehicle CO (castor oil)", "result": ">2", "unit": "months"},
      {"measurement": "Storage 5 and 40°C", "setting": "[1]; vehicle CO+SBO (70 : 30)", "result": ">2", "unit": "months"}
    ]},
    {"compound": "CC(=O)[C@H]1CC[C@H]2[C@@H]3CC=C4C[C@@H](OS(=O)(=O)O)CC[C@]4(C)[C@H]3CC[C@]12C", "note": "[Pregnenolone sulphate, 5-pregnen-3β-ol-20-one-sulphate]", "values": [
      {"measurement": "D(4:3)", "setting": "[1]; vehicle CO (castor oil)", "result": 0.97, "unit": "µm"},
      {"measurement": "pH", "setting": "[1]; vehicle CO (castor oil)", "result": 8.8},
      {"measurement": "Span", "setting": "[1]; vehicle CO (castor oil)", "result": 1.76},
      {"measurement": "D(4:3)", "setting": "[1]; vehicle CO+SBO (70 : 30)", "result": 0.50, "unit": "µm"},
      {"measurement": "Span", "setting": "[1]; vehicle CO+SBO (70 : 30)", "result": 1.56},
      {"measurement": "pH", "setting": "[1]; [3]", "result": 8.8},
      {"measurement": "Storage 5 and 40°C", "setting": "[1]; vehicle CO (castor oil)", "result": ">1", "unit": "month months"},
      {"measurement": "Storage 5 and 40°C", "setting": "[1]; vehicle CO+SBO (70 : 30)", "result": ">1", "unit": "month months"}
    ]},
    {"compound": "C[C@]12CCC(=O)C=C1CC[C@@H]1[C@@H]2[C@@H](O)C[C@@]2(C)[C@H]1CC[C@]2(O)C(=O)CO", "note": "[Hydrocortisone, 11β,17α,21-trihydroxypregna-4-ene-3,20-dione, reference compound]", "values": [
      {"measurement": "D(4:3)", "setting": "[1]; vehicle CO (castor oil)", "result": 0.76, "unit": "µm"},
      {"measurement": "pH", "setting": "[1]; vehicle CO (castor oil)", "result": 8.7},
      {"measurement": "Span", "setting": "[1]; vehicle CO (castor oil)", "result": 1.43},
      {"measurement": "D(4:3)", "setting": "[1]; vehicle CO+SBO (70 : 30)", "result": 0.56, "unit": "µm"},
      {"measurement": "Span", "setting": "[1]; vehicle CO+SBO (70 : 30)", "result": 1.51},
      {"measurement": "pH", "setting": "[1]; [3]", "result": 8.8}
    ]},
    {"compound": "CC(=O)[C@H]1CC[C@H]2[C@@H]3CC[C@@H]4C[C@H](O)CC[C@]4(C)[C@H]3CC[C@]12C", "note": "[eltanolone, 5β-pregnan-3α-ol-20-one]", "values": [
      {"measurement": "solubility of eltanolone", "setting": "[2]", "result": "about 5 times higher"}
    ]},
    {"compound": "CC(=O)[C@H]1CC[C@H]2[C@@H]3CC[C@@H]4C[C@@H](O)CC[C@]4(C)[C@H]3CC[C@]12C", "note": "[Epipreganolone, 5β-pregnan-3β-ol-20-one]", "values": [
      {"measurement": "D(4:3)", "setting": "[1]; vehicle CO (castor oil)", "result": 0.75, "unit": "µm"},
      {"measurement": "pH", "setting": "[1]; vehicle CO (castor oil)", "result": 8.8},
      {"measurement": "Span", "setting": "[1]; vehicle CO (castor oil)", "result": 1.81},
      {"measurement": "D(4:3)", "setting": "[1]; vehicle CO+SBO (70 : 30)", "result": 0.75, "unit": "µm"},
      {"measurement": "Span", "setting": "[1]; vehicle CO+SBO (70 : 30)", "result": 1.71},
      {"measurement": "pH", "setting": "[1]; [3]", "result": 9.0},
      {"measurement": "Storage 5 and 40°C", "setting": "[1]; vehicle CO (castor oil)", "result": ">4", "unit": "months"},
      {"measurement": "Storage 5 and 40°C", "setting": "[1]; vehicle CO+SBO (70 : 30)", "result": ">4", "unit": "months"}
    ]},
    {"compound": "C[C@]12CC[C@@H](O)C[C@@H]1CC[C@@H]1[C@@H]2CC[C@]2(C)C(=O)CC[C@@H]12", "note": "[Androsterone, 5α-androstan-3α-ol-17-one]", "values": [
      {"measurement": "D(4:3)", "setting": "[1]; vehicle CO (castor oil)", "result": 0.83, "unit": "µm"},
      {"measurement": "pH", "setting": "[1]; vehicle CO (castor oil)", "result": 8.9},
      {"measurement": "Span", "setting": "[1]; vehicle CO (castor oil)", "result": 1.79},
      {"measurement": "D(4:3)", "setting": "[1]; vehicle CO+SBO (70 : 30)", "result": 0.51, "unit": "µm"},
      {"measurement": "Span", "setting": "[1]; vehicle CO+SBO (70 : 30)", "result": 1.50},
      {"measurement": "pH", "setting": "[1]; [3]", "result": 9.2},
      {"measurement": "Storage 5 and 40°C", "setting": "[1]; vehicle CO (castor oil)", "result": ">1", "unit": "month months"},
      {"measurement": "Storage 5 and 40°C", "setting": "[1]; vehicle CO+SBO (70 : 30)", "result": ">1", "unit": "month months"}
    ]},
    {"compound": "C[C@]12CC[C@@H](O)C[C@H]1CC[C@@H]1[C@@H]2CC[C@]2(C)[C@@H](C(=O)CO)CC[C@@H]12", "note": "[Tetrahydrodeoxycorticosterone, 5β-pregnan-3α,21-diol-20-one]", "values": [
      {"measurement": "D(4:3)", "setting": "[1]; vehicle CO (castor oil)", "result": 0.86, "unit": "µm"},
      {"measurement": "pH", "setting": "[1]; vehicle CO (castor oil)", "result": 9.0},
      {"measurement": "Span", "setting": "[1]; vehicle CO (castor oil)", "result": 1.80},
      {"measurement": "D(4:3)", "setting": "[1]; vehicle CO+SBO (70 : 30)", "result": 0.58, "unit": "µm"},
      {"measurement": "Span", "setting": "[1]; vehicle CO+SBO (70 : 30)", "result": 1.52},
      {"measurement": "pH", "setting": "[1]; [3]", "result": 9.1},
      {"measurement": "Storage 5 and 40°C", "setting": "[1]; vehicle CO (castor oil)", "result": ">1", "unit": "month months"},
      {"measurement": "Storage 5 and 40°C", "setting": "[1]; vehicle CO+SBO (70 : 30)", "result": ">1", "unit": "month months"}
    ]},
    {"compound": "CC(=O)[C@H]1CC[C@H]2[C@@H]3CC[C@H]4C[C@H](O)CC[C@]4(C)[C@H]3CC[C@]12C", "note": "[Allo pregnanolone, 5α-pregnan-3β-ol-20-one]", "values": [
      {"measurement": "D(4:3)", "setting": "[1]; vehicle CO (castor oil)", "result": 0.69, "unit": "µm"},
      {"measurement": "pH", "setting": "[1]; vehicle CO (castor oil)", "result": 8.8},
      {"measurement": "Span", "setting": "[1]; vehicle CO (castor oil)", "result": 1.70},
      {"measurement": "D(4:3)", "setting": "[1]; vehicle CO+SBO (70 : 30)", "result": 0.53, "unit": "µm"},
      {"measurement": "Span", "setting": "[1]; vehicle CO+SBO (70 : 30)", "result": 1.58},
      {"measurement": "pH", "setting": "[1]; [3]", "result": 9.0},
      {"measurement": "Storage 5 and 40°C", "setting": "[1]; vehicle CO (castor oil)", "result": ">3", "unit": "months"},
      {"measurement": "Storage 5 and 40°C", "setting": "[1]; vehicle CO+SBO (70 : 30)", "result": ">3", "unit": "months"}
    ]}
  ]
}
